This note sets out measurements from patent US8580769B2, “Treatment of obesity, metabolic syndrome, and diabetes with protein kinase C inhibitors” (The United States of America as represented by the …, priority 2011, dated 2013).

For one assay, the target named is T1, recombinant PKC-ι (Homo sapiens, UniProt P41743).
T1 construct: purchased Biovision, Mountain View, Calif
T1 sequence (P41743 1-596): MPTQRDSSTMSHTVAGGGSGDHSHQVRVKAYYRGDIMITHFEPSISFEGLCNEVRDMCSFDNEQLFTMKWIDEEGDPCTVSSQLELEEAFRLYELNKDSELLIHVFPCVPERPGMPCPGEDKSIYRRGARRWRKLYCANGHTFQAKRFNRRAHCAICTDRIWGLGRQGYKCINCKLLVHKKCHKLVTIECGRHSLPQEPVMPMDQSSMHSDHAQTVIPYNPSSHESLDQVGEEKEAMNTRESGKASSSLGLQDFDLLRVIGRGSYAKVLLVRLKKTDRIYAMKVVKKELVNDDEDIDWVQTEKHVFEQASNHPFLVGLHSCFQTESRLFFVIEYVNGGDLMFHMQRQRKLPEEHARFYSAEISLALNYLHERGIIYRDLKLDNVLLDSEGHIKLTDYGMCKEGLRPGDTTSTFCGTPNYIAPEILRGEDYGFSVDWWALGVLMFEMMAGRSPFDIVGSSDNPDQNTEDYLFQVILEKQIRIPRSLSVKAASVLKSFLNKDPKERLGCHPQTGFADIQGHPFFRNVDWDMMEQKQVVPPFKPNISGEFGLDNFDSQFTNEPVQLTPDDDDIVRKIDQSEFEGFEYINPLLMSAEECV
Put plainly: recombinant PKC-ι activity assay (PIP3-activated). It is filed as biochemical. On the procedure:
aPKCι Assays: aPKC enzyme activity was measured as previously described (Standaert et al., J. Biol. Chem. 279:24929-24934, 2004; Sajan et al., J. Lipid Res. 50:1133-1145, 2009; Sajan et al., Diabetologia 52:1197-1207, 2009; Farese et al., J. Clin. Invest. 117:2289-2301, 2007). […] After incubation, ^32P-labeled substrate was trapped on P-81 filter paper and counted. […]

For a further assay, the system named is FoxO1. Put plainly: serine-256 phosphorylation of FoxO1 in human hepatocytes. The class given is cell-based. Particulars: inhibitor alone or with insulin. On the procedure: After thawing, the hepatocytes were distributed (approximately 10^6 cells per 100 mm plate) and incubated approximately 16 hours overnight in Dulbecco's minimal essential medium containing 5% fetal calf serum, 100 units/ml sodium-penicillin, 100 μg/ml streptomycin-sulfate, 1 μM insulin and 2 μM dexamethasone. After washing, cells were incubated first for 2 hours in William's E medium (Sigma-Aldrich, St. Louis, Mo., catalog no. W1878) containing GLUTAMAX™ (Gibco/Invitrogen, Carlsbad, Calif.), 100 units/ml sodium-penicillin, 100 μg/ml streptomycin-sulfate, 10 μM insulin, 100 nM dexamethasone, and then for 2 hours in William's E medium containing 100 units/ml sodium penicillin, 100 μg/ml streptomycin-sulfate, 100 nM dexamethasone, 0.25 mg/ml transferrin, 0.25 μg/ml sodium selenite and 10 μM insulin. Cells were then washed and incubated for 3 hours in the same medium, but lacking insulin. Where indicated, an aPKC inhibitor was then added and incubation was continued for 30 min, after which, cells were treated either for 15 min with or without 100 nM insulin for acute signaling studies, or for 6 hours, with or without 1 μM insulin for expression studies. After incubation, cells were sonicated in homogenizing buffer. […]

Regarding `O=C([O-])CC([S][Au])C(=O)[O-]` (stereo not shown) [ATM, aurothiomalate, reference compound], at recombinant PKC-ι (in vitro), the “inhibition of PIP3-activated recombinant PKC-ι” value is reported as “did not inhibit”. Also, the FoxO1 phosphorylation result with FoxO1 is listed as “insulin-like, or enhanced insulin, effects”.

By IC50 is commonly meant the concentration that gives 50% inhibition. For the compound `NC(=O)c1ncn([C@@H]2C[C@H](COP(=O)(O)O)[C@@H](O)[C@H]2O)c1N` [ICAPP, 1H-imidazole-4-carboxamide, 5-amino-1-[2,3-dihydroxy-4-[(phosphonooxy)methyl]cyclopentyl]-[1R-(1α,2β,3β,4α)]], the IC50 on recombinant PKC-ι (10 ng recombinant PKC-ι activated by 10 fM PIP3, in vitro) was 10 to 100 nM. Moreover, the FoxO1 phosphorylation entry in the assay on FoxO1 is “insulin-like, or enhanced insulin, effects”.
